Assay results reported in ChEMBL document CHEMBL5665443, “Enzyme Inhibitor Single Concentration assay results for EUbOPEN Chemogenomics Library” (2024).

Key:
[1] = molecular target: T1, Adenine DNA glycosylase (Homo sapiens) (UniProt Q9UIF7); conditions: Hit No;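 also: human MUTYH activity read as 594 nm fluorescence from cleavage and release of a quenched DNA duplex, coupled with APE1 for strand incision, lower signal meaning inhibition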
T1 sequence (whole entry): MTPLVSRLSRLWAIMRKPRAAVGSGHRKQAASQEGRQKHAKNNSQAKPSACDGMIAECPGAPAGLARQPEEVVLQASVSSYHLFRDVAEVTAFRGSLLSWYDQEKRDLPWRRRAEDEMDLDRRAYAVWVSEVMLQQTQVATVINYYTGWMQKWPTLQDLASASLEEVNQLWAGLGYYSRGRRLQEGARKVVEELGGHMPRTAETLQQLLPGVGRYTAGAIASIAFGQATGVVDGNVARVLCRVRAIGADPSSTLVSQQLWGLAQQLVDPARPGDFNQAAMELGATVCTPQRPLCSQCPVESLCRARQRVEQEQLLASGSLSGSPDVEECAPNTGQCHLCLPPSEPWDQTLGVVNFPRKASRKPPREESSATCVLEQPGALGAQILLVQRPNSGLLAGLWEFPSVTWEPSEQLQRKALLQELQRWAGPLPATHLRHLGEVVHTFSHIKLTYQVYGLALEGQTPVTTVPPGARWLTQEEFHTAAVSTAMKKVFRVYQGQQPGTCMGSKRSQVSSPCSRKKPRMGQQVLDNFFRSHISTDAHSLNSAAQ
Description: Inhibition of MUTYH by quantifying inhibition of MUTYH-mediated cleavage and dissociation of quenched duplex DNA oligonucleotides, measured as fluorescence at 594 nm. To generate a functional strand incision and increase turn-over this assay is coupled to APE1.

[2] = molecular target: Endonuclease 8-like 1 (Homo sapiens) (UniProt Q96FI4); conditions: Hit No;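 also: fluorescence at 594 nm from quenched duplex DNA oligonucleotides released by NEIL1 cleavage and strand separation, reported as reduction of this enzyme activity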
Chain of Endonuclease 8-like 1 (Homo sapiens) (Q96FI4 whole entry): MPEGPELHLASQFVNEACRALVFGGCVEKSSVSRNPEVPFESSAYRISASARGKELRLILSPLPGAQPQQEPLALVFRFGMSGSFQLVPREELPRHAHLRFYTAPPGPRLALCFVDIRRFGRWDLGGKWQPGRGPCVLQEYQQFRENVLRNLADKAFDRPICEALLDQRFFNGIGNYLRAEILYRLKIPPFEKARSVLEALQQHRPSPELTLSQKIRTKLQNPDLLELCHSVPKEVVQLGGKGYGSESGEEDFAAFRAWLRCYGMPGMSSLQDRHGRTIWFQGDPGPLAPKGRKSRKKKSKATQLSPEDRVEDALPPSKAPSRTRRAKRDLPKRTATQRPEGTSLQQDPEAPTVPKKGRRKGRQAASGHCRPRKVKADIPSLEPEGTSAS
Description: Inhibition of NEIL1 by quantifying inhibition of NEIL1-mediated cleavage and dissociation of quenched duplex DNA oligonucleotides, measured as fluorescence at 594 nm.

[3] = molecular target: T2, Endonuclease 8-like 2 (Homo sapiens) (UniProt Q969S2); conditions: Hit No;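 also: fluorescence at 594 nm reports NEIL2 cutting and release of a quenched double-stranded DNA oligo substrate, reduced signal read as inhibition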
T2 sequence (whole entry): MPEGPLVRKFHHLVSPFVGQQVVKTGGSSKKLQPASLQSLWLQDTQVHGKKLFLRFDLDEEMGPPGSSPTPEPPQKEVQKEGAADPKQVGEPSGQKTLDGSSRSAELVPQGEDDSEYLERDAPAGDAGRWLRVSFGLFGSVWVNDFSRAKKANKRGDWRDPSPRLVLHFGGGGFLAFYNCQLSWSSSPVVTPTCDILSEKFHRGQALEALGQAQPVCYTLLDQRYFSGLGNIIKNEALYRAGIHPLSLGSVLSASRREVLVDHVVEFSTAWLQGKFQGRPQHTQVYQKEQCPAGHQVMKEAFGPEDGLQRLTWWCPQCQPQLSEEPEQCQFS
Description: Inhibition of NEIL2 by quantifying inhibition of NEIL2-mediated cleavage and dissociation of quenched duplex DNA oligonucleotides, measured as fluorescence at 594 nm.

[4] = molecular target: T3, Endonuclease III-like protein 1 (Homo sapiens) (UniProt P78549); conditions: Hit No;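 also: enzyme assay tracking NTHL1 cutting and release of a quenched double-stranded DNA oligo substrate, read as fluorescence at 594 nm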
T3 sequence (whole entry): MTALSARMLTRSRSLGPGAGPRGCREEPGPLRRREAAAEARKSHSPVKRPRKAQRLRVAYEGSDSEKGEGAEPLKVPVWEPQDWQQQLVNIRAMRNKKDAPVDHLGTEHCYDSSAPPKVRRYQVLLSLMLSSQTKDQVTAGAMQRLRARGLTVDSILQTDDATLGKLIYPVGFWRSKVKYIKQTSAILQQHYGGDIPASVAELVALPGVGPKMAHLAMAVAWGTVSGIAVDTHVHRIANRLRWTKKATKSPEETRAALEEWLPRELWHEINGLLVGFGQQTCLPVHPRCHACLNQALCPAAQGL
Description: Inhibition of NTHL1 by quantifying inhibition of NTHL1-mediated cleavage and dissociation of quenched duplex DNA oligonucleotides, measured as fluorescence at 594 nm.

[5] = molecular target: T4, Single-strand selective monofunctional uracil DNA glycosylase (Homo sapiens) (UniProt Q53HV7); conditions: Hit No;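 also: enzymatic SMUG1 assay coupled with APE1, reading fluorescence at 594 nm released when a quenched double-stranded DNA oligonucleotide substrate is cleaved and separated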
T4 sequence (whole entry): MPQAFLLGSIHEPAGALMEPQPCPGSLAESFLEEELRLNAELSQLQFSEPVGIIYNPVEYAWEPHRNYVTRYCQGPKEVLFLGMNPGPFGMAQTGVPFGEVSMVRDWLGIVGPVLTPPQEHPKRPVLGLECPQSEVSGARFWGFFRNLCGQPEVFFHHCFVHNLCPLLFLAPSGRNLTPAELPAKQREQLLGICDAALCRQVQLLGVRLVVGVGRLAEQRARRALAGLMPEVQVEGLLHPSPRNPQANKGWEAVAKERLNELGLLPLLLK
Description: Inhibition of SMUG1 by quantifying inhibition of SMUG1-mediated cleavage and dissociation of quenched duplex DNA oligonucleotides, measured as fluorescence at 594 nm. To generate a functional strand incision and increase turn-over this assay is coupled to APE1.

[6] = molecular target: G/T mismatch-specific thymine DNA glycosylase (Homo sapiens) (UniProt Q13569); conditions: Hit No;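 also: human TDG cleavage of quenched duplex DNA oligonucleotides coupled to APE1, strand release read as fluorescence at 594 nm, inhibition of TDG activity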
Chain of G/T mismatch-specific thymine DNA glycosylase (Homo sapiens) (Q13569 whole entry): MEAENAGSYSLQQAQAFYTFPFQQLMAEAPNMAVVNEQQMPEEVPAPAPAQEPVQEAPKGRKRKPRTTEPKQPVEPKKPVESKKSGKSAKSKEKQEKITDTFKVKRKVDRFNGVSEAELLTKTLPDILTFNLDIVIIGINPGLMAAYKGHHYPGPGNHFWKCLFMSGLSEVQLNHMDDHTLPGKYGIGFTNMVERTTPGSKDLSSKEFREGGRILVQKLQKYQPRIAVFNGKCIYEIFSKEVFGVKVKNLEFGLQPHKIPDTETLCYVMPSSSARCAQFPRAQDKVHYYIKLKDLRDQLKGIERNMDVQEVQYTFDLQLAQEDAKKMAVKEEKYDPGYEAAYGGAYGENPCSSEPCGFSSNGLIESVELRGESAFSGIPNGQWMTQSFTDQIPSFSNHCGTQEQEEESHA
Description: Inhibition of TDG by quantifying inhibition of TDG-mediated cleavage and dissociation of quenched duplex DNA oligonucleotides, measured as fluorescence at 594 nm. To generate a functional strand incision and increase turn-over this assay is coupled to APE1.

[7] = molecular target: Uracil-DNA glycosylase (Homo sapiens) (UniProt P13051); conditions: Hit No;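 also: UNG excision on a quenched double-stranded DNA oligo probe, with APE1 added for strand incision and turnover, read as fluorescence at 594 nm as strands separate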
Chain of Uracil-DNA glycosylase (Homo sapiens) (P13051 whole entry): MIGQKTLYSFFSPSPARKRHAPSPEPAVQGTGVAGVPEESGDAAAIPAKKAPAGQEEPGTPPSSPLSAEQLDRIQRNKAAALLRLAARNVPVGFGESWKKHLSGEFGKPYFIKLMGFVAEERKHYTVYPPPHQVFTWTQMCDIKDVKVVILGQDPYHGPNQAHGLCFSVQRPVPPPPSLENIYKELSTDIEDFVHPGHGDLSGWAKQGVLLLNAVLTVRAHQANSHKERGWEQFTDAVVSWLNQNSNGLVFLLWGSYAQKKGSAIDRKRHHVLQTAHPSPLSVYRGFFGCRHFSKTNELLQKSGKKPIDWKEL
Description: Inhibition of UNG by quantifying inhibition of UNG-mediated cleavage and dissociation of quenched duplex DNA oligonucleotides, measured as fluorescence at 594 nm. To generate a functional strand incision and increase turn-over this assay is coupled to APE1.

[8] = molecular target: N-glycosylase/DNA lyase (Homo sapiens) (UniProt O15527); conditions: Compound Concentration 10.0 uM, Hit No;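 also: OGG1 cleavage of a quenched duplex DNA oligonucleotide, coupled to APE1 for strand incision, read as fluorescence at 594 nm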
Chain of N-glycosylase/DNA lyase (Homo sapiens) (O15527 whole entry, the tested form may be a part): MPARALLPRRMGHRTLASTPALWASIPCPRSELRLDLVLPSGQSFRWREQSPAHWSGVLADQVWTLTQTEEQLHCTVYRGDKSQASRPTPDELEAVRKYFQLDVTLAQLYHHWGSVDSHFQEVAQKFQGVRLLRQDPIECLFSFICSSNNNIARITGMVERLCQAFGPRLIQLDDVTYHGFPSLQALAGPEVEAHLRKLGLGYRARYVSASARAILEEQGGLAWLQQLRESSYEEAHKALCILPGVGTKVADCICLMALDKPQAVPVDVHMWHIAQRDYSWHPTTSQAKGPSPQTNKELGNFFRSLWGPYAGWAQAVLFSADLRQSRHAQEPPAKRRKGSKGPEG
Description: Inhibition of OGG1 by quantifying inhibition of OGG1-mediated cleavage and dissociation of quenched duplex DNA oligonucleotides, measured as fluorescence at 594 nm. To generate a functional strand incision and increase turn-over this assay is coupled to APE1.

[9] = molecular target: Methyl-CpG-binding domain protein 4 (Homo sapiens) (UniProt O95243); conditions: Compound Concentration 10.0 uM, Hit No;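 also: MBD4 activity read as fluorescence at 594 nm from cleavage and release of a quenched duplex DNA oligonucleotide, with APE1 coupled to incise the strand and raise turnover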
Chain of Methyl-CpG-binding domain protein 4 (Homo sapiens) (O95243 whole entry, the tested form may be a part): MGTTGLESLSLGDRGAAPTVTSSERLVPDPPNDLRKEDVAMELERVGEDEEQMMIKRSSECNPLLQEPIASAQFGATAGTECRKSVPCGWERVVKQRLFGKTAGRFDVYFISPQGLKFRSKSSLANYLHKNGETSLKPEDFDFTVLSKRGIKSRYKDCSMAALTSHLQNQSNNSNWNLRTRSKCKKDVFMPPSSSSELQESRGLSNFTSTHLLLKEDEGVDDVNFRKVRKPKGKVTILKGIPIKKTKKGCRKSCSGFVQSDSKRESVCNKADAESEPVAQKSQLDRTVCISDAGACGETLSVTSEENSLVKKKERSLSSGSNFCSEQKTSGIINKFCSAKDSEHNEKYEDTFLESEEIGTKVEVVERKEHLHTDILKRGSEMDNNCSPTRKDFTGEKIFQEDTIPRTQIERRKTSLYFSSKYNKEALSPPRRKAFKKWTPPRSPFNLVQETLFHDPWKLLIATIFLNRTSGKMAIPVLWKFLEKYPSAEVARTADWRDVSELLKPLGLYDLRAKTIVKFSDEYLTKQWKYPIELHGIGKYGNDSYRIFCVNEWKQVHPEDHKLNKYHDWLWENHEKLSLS
Description: Inhibition of MBD4 by quantifying inhibition of MBD4-mediated cleavage and dissociation of quenched duplex DNA oligonucleotides, measured as fluorescence at 594 nm. To generate a functional strand incision and increase turn-over this assay is coupled to APE1.

inhibition ([1]; Compound Concentration 1.0 uM)	inhibition ([2]; Compound Concentration 1.0 uM)	inhibition ([3]; Compound Concentration 1.0 uM)	inhibition ([4]; Compound Concentration 1.0 uM)	inhibition ([5]; Compound Concentration 1.0 uM)	inhibition ([6]; Compound Concentration 1.0 uM)	inhibition ([7]; Compound Concentration 1.0 uM)	inhibition ([1]; Compound Concentration 10.0 uM)	inhibition ([2]; Compound Concentration 10.0 uM)	inhibition ([3]; Compound Concentration 10.0 uM)	inhibition ([4]; Compound Concentration 10.0 uM)	inhibition [8]	inhibition ([5]; Compound Concentration 10.0 uM)	inhibition ([6]; Compound Concentration 10.0 uM)	inhibition ([7]; Compound Concentration 10.0 uM)	inhibition [9]	Compound
-0.0556%	-1.18%	-5.15%	-0.61%	19.2%	43.2%	0.598%										Cn1cc(-c2[nH]c3cc(NC(=O)[C@H](N)C4CCCCC4)cc4c3c2C=NNC4=O)cn1
							14%	-9.4%	5.26%	7.05%	-0.162%	5%	20.9%	-8.09%		Cc1nc(C#Cc2ccnc(Cl)c2)c(C)n1-c1ccc(OC(F)(F)F)cc1
							2.22%			0.934%	-5.49%		29.5%	-4.15%	29.2%	c1ccc(N2CCN(Cc3nc4ccccc4[nH]3)CC2)nc1
							-2.28%	-2.58%	0.515%	-6.14%	-5.76%	-4.73%	6.23%			N[C@@H]1c2cccnc2[C@H](OC(=O)N2CCC(n3c(=O)[nH]c4ncccc43)CC2)CC[C@H]1c1cccc(F)c1F
							-4.71%	-2.28%	7%	9.99%			1.13%	-9.1%	-3.57%	CN1CCN(c2cc(-c3ccccc3)nc(N)n2)CC1
							34.3%	0.537%	1.76%	1.92%	-4.35%		0.584%		-9.61%	CCCCC(=O)N(Cc1ccc(-c2ccccc2-c2nnn[nH]2)cc1)[C@H](C(=O)O)C(C)C
							0.794%			-7.58%	1.98%		55.9%	4.65%	-0.914%	CC#CC(=O)N1CCC[C@H]1c1nc(-c2ccc(C(=O)Nc3ccccn3)cc2)c2c(N)nccn12
							-7.76%	7.86%	-4.17%	3.04%	-2.36%	11.7%	-8.31%	-4.28%		CC(C)(C)c1ccc2c(c1)CC[C@H]2NC(=O)Nc1cccc2[nH]ncc12
							9.75%	2.61%	11.2%	7.05%		-9.38%	-6.42%			OC[C@H]1O[C@@H](n2cnc3c(NC4CCCC4)ncnc32)[C@H](O)[C@@H]1O
							-9.46%			11.9%		-8.61%	76.5%	-3.12%		CNc1cc(Oc2cc(C(=O)Nc3cc(N4CCN(C)CC4)cc(C(F)(F)F)c3)ccc2C)ncn1
							1.81%	10.6%	-3.73%	1.92%		-9.96%	-7.89%			C=CCN1C[C@H](C(=O)N(CCCN(C)C)C(=O)NCC)C[C@@H]2c3cccc4[nH]cc(c34)C[C@H]21
							4.88%	2.61%	-3.23%	21.7%	-6.42%		2.93%		-9.78%	COc1ccc(CN(CCN(C)C)c2ccccn2)cc1
							0.369%	2.52%	-5.15%	-9.68%	-5.86%	18.6%	49.5%	-1.44%		OCCn1cc(-c2cnc3nnn(Cc4ccc5ncccc5c4)c3n2)cn1
